Data reported in paper PMC4705544, “CPUY201112, a novel synthetic small-molecule compound and inhibitor of heat shock protein Hsp90, induces p53-mediated apoptosis in MCF-7 cells” (Scientific Reports, 2016).

Biological target: T1, Hsp90α (Homo sapiens, UniProt P07900)
T1 construct: gene HSP90AA1; full-length Hsp90
Assay: BLI (ForteBio Octet Red […]); also FP competition with FITC-geldanamycin (IC50 […]) and HTRF ATPase inhibition
Format: binding

Kd: 0.027 ± 0.005 µM
SMILES: CCOc1ncc2c(n1)CCN(C(=O)c1cc(C(C)C)c(O)cc1O)C2 [CPUY201112]
